Data reported in the supplement of paper PMC10307832.

Tests used:
Test in all cases: relative viability (nuclei count vs DMSO), 5 days (fraction); higher = more cells survive
A549 = system: A549
In short: (§1)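 Five library-drug doses in √10 steps were combined with a fixed anchor-drug dose, or a single drug was given alone, by pin tool to lung cancer cell lines in 1536-well plates the day after seeding. Nuclei were stained and counted after 5 days. Relative viability is the nuclei count in treated wells over that in vehicle wells, taken as the median of duplicate plates.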

Calu-6 = system: Calu-6
In short: as §1

EBC-1 = system: EBC-1
In short: as §1

IA-LM = system: IA-LM
In short: as §1

NCI-H1299 = system: NCI-H1299
In short: as §1

NCI-H1651 = system: NCI-H1651
In short: as §1

NCI-H1703 = system: NCI-H1703
In short: as §1

NCI-H1944 = system: NCI-H1944
In short: as §1

NCI-H520 = system: NCI-H520
In short: as §1

NCI-H650 = system: NCI-H650
In short: as §1

NCI-H838 = system: NCI-H838
In short: as §1

RERF-LC-KJ = system: RERF-LC-KJ
In short: as §1

O=c1cc(N2CCOCC2)oc2c(-c3cccc4c3sc3ccccc34)cccc12 + C[C@@H](Oc1cc(-c2cnn(C3CCNCC3)c2)cnc1N)c1c(Cl)ccc(F)c1Cl [Crizotinib] (partner 1 µM)
relative viability (A549; first compound 0.01 µM): 0.771
relative viability (A549; first compound 0.03162 µM): 0.769
relative viability (A549; first compound 0.1 µM): 0.746
relative viability (A549; first compound 0.3162 µM): 0.828
relative viability (A549; first compound 1 µM): 0.659
relative viability (Calu-6; first compound 0.01 µM): 0.858
relative viability (Calu-6; first compound 0.03162 µM): 0.857
relative viability (Calu-6; first compound 0.1 µM): 0.793
relative viability (Calu-6; first compound 0.3162 µM): 0.759
relative viability (Calu-6; first compound 1 µM): 0.777
relative viability (EBC-1; first compound 0.01 µM): 0.208
relative viability (EBC-1; first compound 0.03162 µM): 0.227
relative viability (EBC-1; first compound 0.1 µM): 0.207
relative viability (EBC-1; first compound 0.3162 µM): 0.221
relative viability (EBC-1; first compound 1 µM): 0.204
relative viability (IA-LM; first compound 0.01 µM): 0.965
relative viability (IA-LM; first compound 0.03162 µM): 0.694
relative viability (IA-LM; first compound 0.1 µM): 0.683
relative viability (IA-LM; first compound 0.3162 µM): 0.732
relative viability (IA-LM; first compound 1 µM): 0.621
relative viability (NCI-H1299; first compound 0.01 µM): 0.949
relative viability (NCI-H1299; first compound 0.03162 µM): 0.954
relative viability (NCI-H1299; first compound 0.1 µM): 0.973
relative viability (NCI-H1299; first compound 0.3162 µM): 0.637
relative viability (NCI-H1299; first compound 1 µM): 0.923
relative viability (NCI-H1651; first compound 0.01 µM): 0.878
relative viability (NCI-H1651; first compound 0.03162 µM): 0.92
relative viability (NCI-H1651; first compound 0.1 µM): 0.948
relative viability (NCI-H1651; first compound 0.3162 µM): 0.853
relative viability (NCI-H1651; first compound 1 µM): 0.859
relative viability (NCI-H1703; first compound 0.01 µM): 0.769
relative viability (NCI-H1703; first compound 0.03162 µM): 0.604
relative viability (NCI-H1703; first compound 0.1 µM): 0.918
relative viability (NCI-H1703; first compound 0.3162 µM): 0.584
relative viability (NCI-H1703; first compound 1 µM): 0.591
relative viability (NCI-H1944; first compound 0.01 µM): 1.05
relative viability (NCI-H1944; first compound 0.03162 µM): 1.03
relative viability (NCI-H1944; first compound 0.1 µM): 1.18
relative viability (NCI-H1944; first compound 0.3162 µM): 1.03
relative viability (NCI-H1944; first compound 1 µM): 1.04
relative viability (NCI-H520; first compound 0.01 µM): 0.824
relative viability (NCI-H520; first compound 0.03162 µM): 0.739
relative viability (NCI-H520; first compound 0.1 µM): 1.04
relative viability (NCI-H520; first compound 0.3162 µM): 0.697
relative viability (NCI-H520; first compound 1 µM): 0.825
relative viability (NCI-H650; first compound 0.01 µM): 0.738
relative viability (NCI-H650; first compound 0.03162 µM): 0.82
relative viability (NCI-H650; first compound 0.3162 µM): 0.868
relative viability (NCI-H650; first compound 1 µM): 0.587
relative viability (NCI-H838; first compound 0.01 µM): 0.876
relative viability (NCI-H838; first compound 0.03162 µM): 0.77
relative viability (NCI-H838; first compound 0.1 µM): 0.849
relative viability (NCI-H838; first compound 0.3162 µM): 0.744
relative viability (NCI-H838; first compound 1 µM): 0.787
relative viability (RERF-LC-KJ; first compound 0.01 µM): 0.838
relative viability (RERF-LC-KJ; first compound 0.03162 µM): 0.798
relative viability (RERF-LC-KJ; first compound 0.1 µM): 0.871
relative viability (RERF-LC-KJ; first compound 0.3162 µM): 0.823
relative viability (RERF-LC-KJ; first compound 1 µM): 0.808

CCN(CC)CCCCNc1ncc2cc(-c3cc(OC)cc(OC)c3)c(NC(=O)NC(C)(C)C)nc2n1 + C[C@@H](Oc1cc(-c2cnn(C3CCNCC3)c2)cnc1N)c1c(Cl)ccc(F)c1Cl [Crizotinib] (partner 1 µM)
relative viability (A549; first compound 0.01 µM): 0.782
relative viability (A549; first compound 0.03162 µM): 0.854
relative viability (A549; first compound 0.1 µM): 0.961
relative viability (A549; first compound 0.3162 µM): 0.805
relative viability (A549; first compound 1 µM): 0.655
relative viability (Calu-6; first compound 0.01 µM): 0.943
relative viability (Calu-6; first compound 0.03162 µM): 0.784
relative viability (Calu-6; first compound 0.1 µM): 0.899
relative viability (Calu-6; first compound 0.3162 µM): 1.02
relative viability (Calu-6; first compound 1 µM): 0.712
relative viability (EBC-1; first compound 0.01 µM): 0.209
relative viability (EBC-1; first compound 0.03162 µM): 0.189
relative viability (EBC-1; first compound 0.1 µM): 0.242
relative viability (EBC-1; first compound 0.3162 µM): 0.213
relative viability (EBC-1; first compound 1 µM): 0.187
relative viability (IA-LM; first compound 0.01 µM): 0.766
relative viability (IA-LM; first compound 0.03162 µM): 0.629
relative viability (IA-LM; first compound 0.1 µM): 1.02
relative viability (IA-LM; first compound 0.3162 µM): 0.97
relative viability (IA-LM; first compound 1 µM): 0.932
relative viability (NCI-H1299; first compound 0.01 µM): 1
relative viability (NCI-H1299; first compound 0.03162 µM): 0.912
relative viability (NCI-H1299; first compound 0.1 µM): 1.02
relative viability (NCI-H1299; first compound 0.3162 µM): 0.972
relative viability (NCI-H1299; first compound 1 µM): 0.89
relative viability (NCI-H1651; first compound 0.01 µM): 0.925
relative viability (NCI-H1651; first compound 0.03162 µM): 0.851
relative viability (NCI-H1651; first compound 0.1 µM): 0.945
relative viability (NCI-H1651; first compound 0.3162 µM): 0.909
relative viability (NCI-H1651; first compound 1 µM): 0.828
relative viability (NCI-H1703; first compound 0.01 µM): 0.495
relative viability (NCI-H1703; first compound 0.03162 µM): 0.584
relative viability (NCI-H1703; first compound 0.1 µM): 0.986
relative viability (NCI-H1703; first compound 0.3162 µM): 0.586
relative viability (NCI-H1703; first compound 1 µM): 0.799
relative viability (NCI-H1944; first compound 0.01 µM): 1.29
relative viability (NCI-H1944; first compound 0.03162 µM): 1.14
relative viability (NCI-H1944; first compound 0.1 µM): 1.12
relative viability (NCI-H1944; first compound 0.3162 µM): 1.35
relative viability (NCI-H1944; first compound 1 µM): 1.09
relative viability (NCI-H520; first compound 0.01 µM): 0.901
relative viability (NCI-H520; first compound 0.03162 µM): 0.825
relative viability (NCI-H520; first compound 0.1 µM): 0.86
relative viability (NCI-H520; first compound 0.3162 µM): 0.61
relative viability (NCI-H520; first compound 1 µM): 0.297
relative viability (NCI-H650; first compound 0.01 µM): 0.694
relative viability (NCI-H650; first compound 0.03162 µM): 0.618
relative viability (NCI-H650; first compound 0.1 µM): 0.863
relative viability (NCI-H650; first compound 0.3162 µM): 0.743
relative viability (NCI-H650; first compound 1 µM): 0.606
relative viability (NCI-H838; first compound 0.01 µM): 0.919
relative viability (NCI-H838; first compound 0.03162 µM): 0.84
relative viability (NCI-H838; first compound 0.1 µM): 0.955
relative viability (NCI-H838; first compound 0.3162 µM): 0.79
relative viability (NCI-H838; first compound 1 µM): 0.552
relative viability (RERF-LC-KJ; first compound 0.01 µM): 0.84
relative viability (RERF-LC-KJ; first compound 0.03162 µM): 0.818
relative viability (RERF-LC-KJ; first compound 0.1 µM): 1.13
relative viability (RERF-LC-KJ; first compound 0.3162 µM): 0.916
relative viability (RERF-LC-KJ; first compound 1 µM): 0.816
